Data from patent US20260364213A1, “RADIOLABELED COMPOUNDS OF TRIMETHOPRIM AND USES THEREOF” (THE TRUSTEES OF THE UNIVERSITY OF PENNSYLVANIA, priority 2023, published 2026).
Like-named read-outs stand apart in the source and are kept apart here.

Tests used:
eDHFR [1] = target: T1, eDHFR (Escherichia coli, UniProt P0ABQ4)
T1 sequence (P0ABQ4 1-159): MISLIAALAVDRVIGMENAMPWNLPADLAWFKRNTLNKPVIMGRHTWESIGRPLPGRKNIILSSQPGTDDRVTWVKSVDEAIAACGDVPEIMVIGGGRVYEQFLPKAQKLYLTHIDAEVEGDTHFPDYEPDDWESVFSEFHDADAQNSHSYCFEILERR

OVCAR8-eDHFR-Luc cells = assay: Kill assay (MTT) in OVCAR8-eDHFR-Luc cells; type: cell-based, human
Description: (§1) Following the same uptake protocol till washing after the third wash the cells were counted using cell counter and they were diluted to generate even number of cells/mL. […] We've applied the same blocked conditions used in the uptake assay. […] Then cells will be re-distributed into 96 well plates (2,000 cells/well) with fresh media to monitor cell proliferation by MTT assay on days 1, 3, 7 and 10. A total of 9 wells (3×3) were measured on the plate per sample per time point. To complete the assay cell media was removed and replaced with 50 μL of serum free media and 50 μL of MTT reagent. The plates were covered with tin foil and incubated at 37 °C for 3 hours. The plates were shaken at 200 rpm at 37 °C for 15 min. Using the microplate plate reader, sample absorbance was measured at 590 nm for 600 ms. Controls included [^131I]NaI treated cells and blocking with 10 μM parent TMP (unlabeled). An analogous procedure was used for the OVCAR8-eDHFR-Luc kill assay with different doses (1.85-37 MBq) and treatment times.
To investigate the therapeutic potential of m[^131I]mI-TMP 5b in tumor cell lines, OVCAR8 eDHFR+ cells were exposed to varying doses (ranging from 1.85-37 MBq) of the radiotracer of 5b at different incubation times. Different conditions were employed to assess the selective therapeutic effect of the radio tracer on eDHFR+ cells. To determine the specific killing of eDHFR+ tumor cells, blocked conditions were analyzed. The cell viability of compound 5b-treated cells was also compared with the cells exposed to [^131I]I—Na. Additionally, untreated cells were used as controls. The MTT assay was used to measure the cell viability of the cells under the aforementioned conditions on days 1, 3, 7, and 12.
OVCAR8-eDHFR-Luc+ cells were treated with 1.85 and 18.5 MBq of m[^131I]mI-TMP 5b and [^131I]I—Na, incubated for 1 hour. […] The cell viability of the compound 5b-treated cells was similar to cells under blocked, [^131I]NaI, and no drug conditions. See, FIG. 2A. […] See, FIG. 2B. Based on the results obtained, a continued dose escalation was considered to better understand the therapeutic window. Finally, OVCAR_eDHFR+ cells were tested with 37 MBq dose of m[^131I]mI-TMP.

eDHFR [2] = target: T1, eDHFR; type: cell-based; set-up: in CAR T cells fused to C-terminus of CD3zeta of FAP-CAR; details: for uptake in eDHFR+ CAR T cells compared to NTD cells: 0.074 MBq, 60 min at 37 °C, FAP-CAR-eDHFR (DF-BFP), day 8 of T cell expansion, 60 min
Description: Primary human T cells were sourced from healthy volunteers through the Human Immunology Core at the University of Pennsylvania. All specimens were obtained following institutional review board-approved protocols and informed consent from the volunteers. Bulk T cells were activated and expanded following established methods and subsequently, either pTRPE-FAP CAR-eDHFR DF or pTRPE-FAP CAR-eDHFR DF-T2A-BFP (7) lentivirus was introduced to the activated T cells 16 hours post-activation at a multiplicity of infection (MOI) of 5. The T cells were then expanded for a period of 10 days. Transduced CAR T cells were incubated with Alexa Fluor 647 AffiniPure F(ab′2) fragment goat anti-mouse immunoglobulin G (Jackson ImmunoResearch Laboratories) for half an hour at room temperature. Following incubation, stained cells were washed 3*100 μL with FACS buffer (2% bovine serum albumin in PBS, Invitrogen). The washed cells were analyzed using a flow cytometer (LSR II, BD Biosciences) to detect CAR and/or BFP expression. FlowJo software was used to analyze the flow data.
Next, the uptake radio-iodinated probe 5b was evaluated in primary human CAR-T cells. CAR-T cells were engineered to express eDHFR which is fused directly to the C-terminus of the signaling CD3zeta domain of the fibroblast activation protein (FAP) CAR. […] After incubation, the cells were centrifuged at 1200 rpm and were washed thrice with cold PBS (Corning). Subsequently, the cell pellet was resuspended in 1% DMSO/PBS and divided into 3 technical replicates of 100 μL each. The uptake of radiotracer was quantified using a gamma counter (PerkinElmer). The final uptake was expressed as a ratio of % ID normalized per […] cells (% ID/million cells). An about 15 fold more uptake in eDHFR+ cells was observed as compared to NTD cells. See, FIGS. 6A and 6B. The specificity is further assessed by comparing with FAP_CAR_eDHFR(df) which has low eDHFR expression. Less uptake of radiotracer 5b was observed as compared to high expressing eDHFR FAP_CARs.
[^131I]I-TMP in CAR T cells. […] In this case, two different fibroblast activation protein (FAP) CAR T cell constructs that express eDHFR fused directly to the C-terminus of the signaling CD3zeta domain of the CAR were used (7) (FIGS. 13F and 13G). […] There was ~15-fold more uptake in FAP-CAR-eDHFR-DF-BFP in comparison to NTD cells at day 8 of T cell expansion (FIG. 13A).

HCT116 eDHFR-Luc cells = assay: Kill assay (MTT) in HCT116 eDHFR-Luc cells; type: cell-based, human; details: 3.7 MBq; for cell growth at day 10: in comparison to blocked conditions
Description: as §1
Despite lower uptake in HCT116 cells, cell viability was measured on days 1, 3, 7, and 10 using the MTT assay and compared with blocked, no drug and [^131I]I—Na treated cells. […] See, FIG. 3A. […] See, FIG. 3B.

Compound | tracer uptake in eDHFR+ cells compared to WT cells (eDHFR [1]; OVCAR8-eDHFR-Luc vs OVCAR8 WT, 0.037 MBq, 1 hour) | cytotoxic effect (OVCAR8-eDHFR-Luc cells; 37 MBq, also with 20 minutes incubation, blocked cells behaved the same) | uptake in eDHFR+ CAR T cells compared to NTD cells (eDHFR [2]) | uptake in eDHFR+ CAR T cells compared to NTD cells (eDHFR [2]; listed as [^131I]I-TMP) | uptake in CAR T cells, earlier day of expansion (eDHFR [2]; earlier day of expansion (day 5)) | cell viability at day 7 (HCT116 eDHFR-Luc cells; 4 hours incubation) | cell growth at day 10 (HCT116 eDHFR-Luc cells; 4 hours incubation) | uptake under blocked conditions (eDHFR [1]; OVCAR8 eDHFR cells preincubated with excess of TMP) | cytotoxic effect / cell viability (OVCAR8-eDHFR-Luc cells; 1.85 MBq, 1 hour) | cell viability under blocked conditions (OVCAR8-eDHFR-Luc cells; 18.5 MBq, 1 h, cells treated with the blocking agent (10 μM TMP)) | cytotoxic effect / cell viability (OVCAR8-eDHFR-Luc cells; 18.5 MBq, 1 h, viability to day 12) | retention in washout study (eDHFR [2]; FAP_CAR_eDHFR cells, after 5 h) | uptake in FAP_CAR_eDHFR(df) with low eDHFR expression (eDHFR [2]; compared to high expressing eDHFR FAP_CARs) | cytotoxic effect (HCT116 eDHFR-Luc cells; 2 hours incubation) | cytotoxic effect (HCT116 eDHFR-Luc cells; 4 hours incubation, compared to blocked cells)
COc1cc(Cc2cnc(N)nc2N)cc([131I])c1OC [[^131I]mI-TMP, 5-(3-iodo-4,5-dimethoxybenzyl)pyrimidine-2,4-diamine] | ~ 25 fold | non-specific cell killing | about 15 fold | ~ 15 fold | ~ 3 fold | no cell regrowth at day 7 | mild regrowth was observed at day 10 and beyond |  |  |  |  |  |  |  | 
COc1cc(Cc2cnc(N)nc2N)cc(I)c1OC [[^131I]mI-TMP, 5-(3-iodo-4,5-dimethoxybenzyl)pyrimidine-2,4-diamine] |  |  |  |  |  | did not show any viability on day 7 | mild growth at day 10 | reduced uptake | did not exhibit any cytotoxic effects/decreased viability | comparable viability to those under no treatment or [^131I]I—Na conditions | strong cytotoxic effects, and thus no cell regrowth/significantly lower viability was observed at day 7 and even at day 12 | strong internalization of compound 5b even after 5 h | Less uptake | did not exhibit any cytotoxic effect | demonstrated a cytotoxic effect
